Experimental data as given in patent publication US7345030B2, “Use of n-acetyl-d-aminoglycosamine in treatment of organ lesions related to toxicosis of drugs or chemicals” (priority 2003, dated 2008).

What was measured:
[1] = system: Kunming mice fed with methanol; experiment: Methanol poisoning test; assay type: in vivo; details: 15 mice, i.p. 0.1 g/ml aqueous solution
Description: 1. Methanol Poisoning Test
(§1) 30 Kunming mice were randomly divided into two groups, i.e., 15 mice in test group (I) and 15 mice in test group (II), and another 15 mice were used as control. Each mouse was fed with methanol in a dose of 0.2 ml/20 g bodyweight. […] The mice of the test group (I) were intra-peritoneally injected with an aqueous solution of N-acetyl-D-glucosamine having a concentration of 0.1 g/ml in a dose of 0.1 ml/20 g bodyweight, just after they were fed with methanol. […] The mice of the test group (II) were intra-peritoneally injected with an aqueous solution of N-acetyl-D-glucosamine having a concentration of 0.1 g/ml in a dose of […], just after they were fed with methanol. […] 2. Rogor Poisoning Test 30 Kunming mice were randomly divided into three groups, i.e., 10 mice in control group, 10 mice in test group (I) and 10 mice in test group (II). The mice were orally fed with 10000 times diluted rogor stock solution (commercially obtained from Chongqing Agriculture Chemicals Group, 500 ml/bottle, standard: GB15583-1995) in a dose of 0.5 ml per mouse for consecutive 3 days. […] The mice of the test groups were treated by intra-peritoneal injection of an aqueous solution of N-acetyl-D-glucosamine having a concentration of 5 g/100 ml in a dose of 0.2 ml for the test group (I) and a dose of 2 ml for the test group (II). […] 3. Lead Poisoning Test 30 Kunming mice were made as lead poisoning models by a method of feeding litharge. […] The mice of the test group (I) were treated by intra-peritoneal injection of N-acetyl-D-glucosamine in a dose of 0.2 ml×10% (weight/volume), and the mice of the test group (II) were treated by intra-peritoneal injection with N-acetyl-D-glucosamine in a dose of 2 ml×10% (weight/volume). The death rate of mice was separately 7/10 and 2/10 within 3 days, and the death rate of mice was 1/3 and 0/8 within the following 4 days. […] According to the above examples, N-acetyl-D-glucosamine can effectively eliminate toxic effects of at least toxicants such as metal ions, organophosphorus pesticides, methanol, etc. that have different action mechanisms.

[2] = Long-period toxicity test; assay type: in vivo; details: maximum dosage up to 1 g/kg, treatment and observation for four weeks
From the text: (§2) The toxicological test of the compound of formula (I) includes: • 1. Acute toxicity test: including tests of oral administration, intravenous injection administration, and maximum limit amount for administration; • 2. Ames test; • 3. Micronucleus test of mouse bone marrow cell; • 4. Abnormality test of mouse sperm; • 5. Aberration test of mouse testis chromosome; • 6. Chronic lethal test; • 7. Sub-chronic toxicity (feed for 90 days) test; • 8. Traditional deformity-inducing test.

[3] = system: Proteus Mirabilis; experiment: Promoting wave test (bio-wave model); assay type: cell-based; details: final concentration 0.5% in LB plate, 37° C., 9 hours, compared with control sample
From the text: 1. Experimental Materials and Method:
1.1 Sample: Pure Compound of Formula (I)
1.2 Experimental Materials:
• Strain: Proteus Mirabilis that meets the following biochemical reaction characteristics: dynamics (+), urease (+), lactose (−), glucose (+), H2S (−), phenylalanine deaminase (+). • Culture medium: modified LB culture medium (components: 1% tryptones, 0.5% yeast extract, 1% sodium chloride, 0.1% glucose, 0.002% TTC, and pH=7.2 to 7.4). 1.3 Experimental Method: • Control sample: the Proteus Mirabilis were inoculated at the center of LB plate, and incubated at 37° C. for 9 hours; • Test sample: the compound of formula (I) with a final concentration of 0.5% was added to the LB plate, then the Proteus Mirabilis were inoculated by the same method, and cultured at 37° C. for 9 hours. 2. […] It is anticipated that this wave-promoting function could treat organ lesions caused by toxicants and drugs.

[4] = system: mice; experiment: Reproduction test; assay type: in vivo; details: mice fed 7 mg/kg for 3 generations
[5] = Acute toxicity test; assay type: in vivo
From the text: as §2

[6] = system: Kunming mice lead poisoning models (litharge); experiment: Lead poisoning test; assay type: in vivo
Description: as §1

[7] = system: Kunming mice fed with rogor; experiment: Rogor poisoning test; assay type: in vivo; details: 10 mice, i.p. 5 g/100 ml aqueous solution
Description: 30 Kunming mice were randomly divided into two groups, i.e., 15 mice in test group (I) and 15 mice in test group (II), and another 15 mice were used as control. Each mouse was fed with methanol in a dose of 0.2 ml/20 g bodyweight. […] The mice of the test group (I) were intra-peritoneally injected with an aqueous solution of N-acetyl-D-glucosamine having a concentration of 0.1 g/ml in a dose of 0.1 ml/20 g bodyweight, just after they were fed with methanol. […] The mice of the test group (II) were intra-peritoneally injected with an aqueous solution of N-acetyl-D-glucosamine having a concentration of 0.1 g/ml in a dose of […], just after they were fed with methanol. […] 2. Rogor Poisoning Test 30 Kunming mice were randomly divided into three groups, i.e., 10 mice in control group, 10 mice in test group (I) and 10 mice in test group (II). The mice were orally fed with 10000 times diluted rogor stock solution (commercially obtained from Chongqing Agriculture Chemicals Group, 500 ml/bottle, standard: GB15583-1995) in a dose of 0.5 ml per mouse for consecutive 3 days. […] The mice of the test groups were treated by intra-peritoneal injection of an aqueous solution of N-acetyl-D-glucosamine having a concentration of 5 g/100 ml in a dose of 0.2 ml for the test group (I) and a dose of 2 ml for the test group (II). […] 3. […]

[8] = test group (I), 0.1 ml/20 g bodyweight
[9] = test group (II), 2 ml/20 g bodyweight
[10] = test group (I), i.p. 0.2 ml×10% (weight/volume)
[11] = test group (II), i.p. 2 ml×10% (weight/volume)

CC(=O)N[C@@H]1[C@@H](O)[C@H](O)[C@@H](CO)O[C@H]1O [compound of formula (I), N-acetyl-D-glucosamine]
mice sequentially died [1, 8]: 5 mice | mice with obvious psychiatric symptoms [1, 8]: 2 mice | mice blind after 2 hours ([1]; test group (I), 0.1 ml/20 g bodyweight, just after methanol 0.2 ml/20 g): 8 mice | blind mice [1, 9]: no mouse was blind | mice died within 12 hours [1, 9]: 2 mice | mice with delirium and myasthenia of limbs [1, 9]: 4 mice | intoxication reaction in long-period toxicity test [2]: no intoxication reaction | wave pattern of the colony (bio-wave promoting function) [3]: many fine waves on each ring | influence on pregnancy, birth, nurse and growth of baby mice [4]: no influence | dosage at which the acute toxicosis reaction had not appeared [5]: more than 2 g/kg | death rate within 3 days [6, 10]: 7/10 | death rate within the following 4 days [6, 10]: 1/3 | death rate within 3 days [6, 11]: 2/10 | death rate within the following 4 days [6, 11]: 0/8 | mice died ([7]; test group (I), 0.2 ml): 4 mice | mice died ([7]; test group (II), 2 ml): 1 mouse
